Assay type in all cases: functional, cell-based
One test deals with HEL. The test is described as follows: Cytotoxicity against HEL cells assessed as reduction in cell viability incubated for 72 hrs by WST assay. The settings on record: Homo sapiens.
The subject of another test is NCI-H1975. The test is described as follows: Cytotoxicity against human NCI-H1975 cells assessed as reduction in cell viability incubated for 48 hrs by MTT assay. The settings on record: NCI-H1975, 48 h.
A further test relates to NCI-H1299. The test is described as follows: Cytotoxicity against human NCI-H1299 cells assessed as reduction in cell viability incubated for 48 hrs by MTT assay. The settings on record: NCI-H1299, 48 h.
In another test the test system is A549/TR. The experiment in a line: Cytotoxicity against human A549/Taxol cells assessed as reduction in cell viability incubated for 48 hrs by MTT assay.
In a further test the test system is A549. The test is described as follows: Cytotoxicity against human A549 cells assessed as reduction in cell viability incubated for 72 hrs by SRB assay. The settings on record: A549, 72 h.
Another test deals with HCT-116. The experiment in a line: Cytotoxicity against human HCT-116 cells assessed as reduction in cell viability incubated for 72 hrs by SRB assay. The settings on record: HCT-116, 72 h.
For a further test, the system named is MDA-MB-231. The test is described as follows: Cytotoxicity against human MDA-MB-231 cells assessed as reduction in cell viability incubated for 72 hrs by SRB assay. The settings on record: MDA-MB-231, 72 h.
Another test relates to SK-HEP1. The experiment in a line: Cytotoxicity against human SK-HEP1 cells assessed as reduction in cell viability incubated for 72 hrs by SRB assay. The note with it: SK-HEP1, 72 h.
The next test concerns SNU-638. The test is described as follows: Cytotoxicity against human SNU-638 cells assessed as reduction in cell viability incubated for 72 hrs by SRB assay. The note with it: SNU-638, 72 h.
For another test, the system named is K562. The experiment in a line: Cytotoxicity against human K562 cells assessed as reduction in cell viability incubated for 72 hrs by SRB assay. The note with it: K562, 72 h.

Take `CC(C)C[C@@H]1NC(=O)[C@H](Cc2ccccc2)N(C)C(=O)[C@@H](C)NC(=O)[C@H](C(C)C)N(C)C(=O)CCNC(=O)[C@H](C)N(C)C(=O)[C@H](C(C)C)NC(=O)[C@H](Cc2c[nH]c3ccccc23)N(C)C(=O)[C@@H]2CCCNN2C(=O)[C@H](CO)N(C)C1=O`: the IC50 worked out at 14000 nM in the test with HEL, 24000 nM with NCI-H1975, 11000 nM in the test on NCI-H1299 and 17000 nM in the test with A549/TR.

Take `CC[C@H](C)[C@@H]1NC(=O)[C@H](Cc2c[nH]c3ccccc23)N(C)C(=O)[C@@H]2CCCNN2C(=O)[C@H](CO)N(C)C(=O)[C@H](CC(C)C)NC(=O)[C@H](Cc2ccccc2)N(C)C(=O)[C@@H](C)NC(=O)[C@H](C(C)C)N(C)C(=O)CCNC(=O)[C@H](C)N(C)C1=O`: the IC50 in the test with HEL turned out to be 13000 nM; in the test on NCI-H1975, 8000 nM; in the test with NCI-H1299 it was 11000 nM; in the test on A549/TR it was 19000 nM; in the test on A549, 200 nM; in the test with HCT-116 it was 200 nM. Besides, the IC50 in the test with MDA-MB-231, in the test on SK-HEP1, in the test on SNU-638 and in the test on K562 was 200 nM in each case.

With `COc1cccc2c1C(=O)c1c(O)c3c(c(O)c1C2=O)C[C@@](O)(C(=O)CO)C[C@@H]3O[C@H]1C[C@H](N)[C@H](O)[C@H](C)O1` [DOXORUBICIN], the IC50 stood at 50 nM with HEL, 120 nM in the test with NCI-H1975, 1400 nM in the test on NCI-H1299 and 1600 nM with A549/TR.

With `COc1cc([C@@H]2c3cc4c(cc3[C@@H](O[C@@H]3O[C@@H]5CO[C@@H](C)O[C@H]5[C@H](O)[C@H]3O)[C@H]3COC(=O)[C@H]23)OCO4)cc(OC)c1O` [ETOPOSIDE], the IC50 with A549, in the test with HCT-116, in the test with MDA-MB-231, in the test with SK-HEP1, in the test with SNU-638 and in the test on K562 was 400 nM throughout.

These data come from ChEMBL document CHEMBL5370581, “NMR-Metabolomic Profiling and Genome Mining Drive the Discovery of Cyclic Decapeptides from a Marine Streptomyces” (J Nat Prod, 2023).
